Assay results: US20230002334A1, “TRPM8 MODULATORS” (Givaudan SA, priority 2019, published 2023)
Where two headings read alike, the source gives them in different places.

What was measured:
[1] = tested on: panelists (mouth, mucosa); assay: Sensory studies in aqueous solution (trained panel, swilling in the mouth); assay type: in vivo, human; conditions: 40 ppm in aqueous solution; for time of max cooling / Max. cooling: 20 mL swilled 60 seconds; for Max. cooling / Cooling after 1 h: averaged panel score on scale 0 to 10; for Cooling after 1 h: 1 h after swilling
Description: The compounds as listed below in Table 2 were dissolved at a concenteration of 1 wt-% in propylene glycol. These solutions were then dispensed in appropriate quantities into deionized water containing 0.5 wt-% Poloxamer 407 (which is a hydrophilic non-ionic surfactant, e.g., commercially available from SigmaAldrich) and 0.25 wt-% Cremaphor® RH40 (obtained from BASF) as solubilizer, to obtain the desired final concentration of 40 ppm (parts per milion) of the respective compound.
A trained group of panelists evaluated the aqueous solutions containing test compound by swilling 20 mL of the solution in the mouth for 60 seconds, followed by spitting, without rinsing the mouth afterwards for the duration of the evaluation. Panelists evaluated and recorded the cooling performance as well as other sensorial and organoleptic attributes at different timepoints over a period of two hours. Cooling performance was rated on a scale from 0 to 10 with 0 being no effect and 10 being freezing. Scores were averaged for all panelists and the cooling intensity qualified as “N” for “none” (score of 0), “L” for “low” (score above 0, up to 1), “M” for “medium” (score above 1, up to 4), “S” for “strong” (score above 4, up to 8) and “E” for “extreme” (score above 8), which are provided in Table 2. […] All tasted samples developed cooling sensation starting during swilling (almost immediately upon contact with the mucosa) and before expectorating.

hTRPM8 = target: T1, hTRPM8 (Homo sapiens, UniProt Q7Z2W7); assay: Assay on TRPM8 modulators: calcium imaging (Fluo-4, Flexstation) in HEK293 cell line stably expressing hTRPM8; assay type: cell-based
T1 construct: expressed in transfected cells
In short: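 Calcium influx monitored by Fluo-4 (2.7 μM with […] probenecid, 1 h 37 °C loading) in HEK293 cells stably expressing hTRPM8, in HEPES buffer pH 7.4 with 2 mM CaCl2. Fluorescence read 15 s before and 105 s after adding serial compound dilutions. Maximal activation relative to solvent and 31.6 μM menthol; EC50 from sigmoidal fit.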

[2] = HEK293 cells stably expressing hTRPM8, calcium influx, sigmoidal dose-response fit, read-out: EC50

T1 sequence (Q7Z2W7 whole entry): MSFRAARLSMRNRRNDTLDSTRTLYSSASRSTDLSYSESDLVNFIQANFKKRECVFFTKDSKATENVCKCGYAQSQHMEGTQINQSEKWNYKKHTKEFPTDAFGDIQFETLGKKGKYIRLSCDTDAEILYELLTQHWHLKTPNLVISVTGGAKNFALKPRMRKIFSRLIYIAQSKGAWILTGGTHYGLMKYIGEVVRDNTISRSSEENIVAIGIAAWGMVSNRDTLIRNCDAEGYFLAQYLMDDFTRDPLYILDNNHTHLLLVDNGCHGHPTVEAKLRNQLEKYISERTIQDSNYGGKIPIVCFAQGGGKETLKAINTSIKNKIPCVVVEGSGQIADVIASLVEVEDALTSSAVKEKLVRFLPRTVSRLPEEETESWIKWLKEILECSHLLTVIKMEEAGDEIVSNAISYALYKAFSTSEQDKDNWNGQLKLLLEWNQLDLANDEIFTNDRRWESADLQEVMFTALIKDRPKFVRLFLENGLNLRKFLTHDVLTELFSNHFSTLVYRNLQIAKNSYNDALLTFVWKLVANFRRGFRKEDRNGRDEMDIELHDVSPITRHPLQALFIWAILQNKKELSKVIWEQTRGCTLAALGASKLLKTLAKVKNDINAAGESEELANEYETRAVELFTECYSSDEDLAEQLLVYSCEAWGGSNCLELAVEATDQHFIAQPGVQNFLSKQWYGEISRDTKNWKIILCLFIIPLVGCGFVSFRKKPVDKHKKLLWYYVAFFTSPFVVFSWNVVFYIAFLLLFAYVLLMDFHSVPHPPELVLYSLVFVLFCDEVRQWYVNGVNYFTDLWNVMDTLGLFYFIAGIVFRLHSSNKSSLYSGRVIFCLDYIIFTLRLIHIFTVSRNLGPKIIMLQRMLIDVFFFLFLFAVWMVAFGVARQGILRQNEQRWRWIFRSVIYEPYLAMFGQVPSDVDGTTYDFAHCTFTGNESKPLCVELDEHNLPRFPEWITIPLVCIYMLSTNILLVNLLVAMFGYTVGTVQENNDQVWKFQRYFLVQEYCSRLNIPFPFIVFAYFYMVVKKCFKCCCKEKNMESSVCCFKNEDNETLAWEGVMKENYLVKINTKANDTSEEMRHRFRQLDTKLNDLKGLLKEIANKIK

| EC50 (hTRPM8; [2]) [nM] | Compound | time of max cooling [1] [min] | Max. cooling [1] | Cooling after 1 h [1] | EC50 (hTRPM8) [nM] |
| --- | --- | --- | --- | --- | --- |
|  | CC(C)=CC[C@H]1C[C@@H]2[C@@H]([C@@H](C)C1)N(C)OC2(C)C (racemic) [Compound 50, rac-(3aR,5R,7S,7aR)-1,3,3,7-tetramethyl-5-(3-methylbut-2-en-1-yl)octahydrobenzo[c]isoxazole] | 10 | M (“M” for “medium” (score above 1, up to 4)) | M (“M” for “medium” (score above 1, up to 4)) | 50 to 300 |
| 50 to 300 | CC(C)N1OC(C)(C)[C@@H]2C[C@H](c3ccccc3)C[C@H](C)[C@H]21 (racemic) [Compound 64, rac-(3aR,5R,7S,7aR)-1-isopropyl-3,3,7-trimethyl-5-phenyloctahydrobenzo[c]isoxazole] | 10 | M (“M” for “medium” (score above 1, up to 4)) | M (“M” for “medium” (score above 1, up to 4)) |  |
| < 50 | COc1ccccc1[C@H]1C[C@@H]2[C@@H]([C@@H](C)C1)N(C(C)C)OC2(C)C (racemic) [Compound 66, rac-(3aR,5R,7S,7aR)-1-isopropyl-5-(2-methoxyphenyl)-3,3,7-trimethyloctahydrobenzo[c]isoxazole] | 20 | M (“M” for “medium” (score above 1, up to 4)) | M (“M” for “medium” (score above 1, up to 4)) |  |
| < 50 | COc1ccccc1[C@H]1C[C@@H]2[C@@H]([C@@H](C)C1)N(C)OC2(C)C (racemic) [Compound 83, rac-(3aR,5R,7S,7aR)-5-(2-methoxyphenyl)-1,3,3,7-tetramethyloctahydrobenzo[c]isoxazole] | 10 | S (“S” for “strong” (score above 4, up to 8)) | L (“L” for “low” (score above 0, up to 1)) |  |
| < 50 | C[C@H]1C[C@@](C)(c2cc(F)cc(F)c2)C[C@@H]2[C@@H]1N(C)OC2(C)C (racemic) [Compound 85, rac-(3aR,5R,7S,7aR)-5-(3,5-difluorophenyl)-1,3,3,5,7-pentamethyloctahydrobenzo[c]isoxazole] | 10 | M (“M” for “medium” (score above 1, up to 4)) | M (“M” for “medium” (score above 1, up to 4)) |  |
| 300 to 1000 | CCN1OC(C)(C)C2CC(CC=C(C)C)CC(C)C21 (racemic) [Compound 120, rac-(3aS,5S,7S,7aS)-1-ethyl-3,3,7-trimethy)-5-(3-methylbut-2-en-1-yl)octahydrobenzo[c]isoxazole] | 10 | M (“M” for “medium” (score above 1, up to 4)) | L (“L” for “low” (score above 0, up to 1)) |  |
| < 50 | C[C@H]1C[C@@](C)(c2cccc(C#N)c2)C[C@@H]2[C@@H]1N(C)OC2(C)C (racemic) [Compound 124, rac-3-((3aR,5R,7S,7aR)-1,3,3,5,7-pentamethyloctahydrobenzo[c]isoxazol-5-yl)benzonitrile] | 5 | S (“S” for “strong” (score above 4, up to 8)) | M (“M” for “medium” (score above 1, up to 4)) |  |
| 300 to 1000 | CC(C)=CCC1(C)CC(C)C2C(C1)C(C)(C)ON2C (stereo not shown) [Compound 1, 1,3,3,5,7-pentamethyl-5-(3-methylbut-2-en-1-yl)octahydrobenzo[c]isoxazole] | 20 | M (“M” for “medium” (score above 1, up to 4)) | M (“M” for “medium” (score above 1, up to 4)) |  |
| 300 to 1000 | CC1=CC[C@H](C2CCC3C(C2)N(C)OC3(C)C)CC1 (stereo partly drawn) [Compound 7, 1,3,3-trimethyl-6-((R)-4-methylcyclohex-3-en-1-yl)octahydrobenzo[c]isoxazole] | 10 | M (“M” for “medium” (score above 1, up to 4)) | L (“L” for “low” (score above 0, up to 1)) |  |
| 50 to 300 | CCN1OC(C)(C)C2CC(C)(CC=C(C)C)CC(C)C21 (stereo not shown) [Compound 9, 1-ethyl-3,3,5,7-tetramethyl-5-(3-methylbut-2-en-1-yl)octahydrobenzo[c]isoxazole] | 10 | M (“M” for “medium” (score above 1, up to 4)) | M (“M” for “medium” (score above 1, up to 4)) |  |
| 1000 to 35000 | CC(C)CCC1CC(C)C2C(C1)C(C)(C)OC(=O)N2C (stereo not shown) [Compound 21, 6-isopentyl-1,4,4,8-tetramethyloctahydro-2H-benzo[d][1,3]oxazin-2-one] |  |  |  |  |
| 1000 to 35000 | CC(C)CCC1CC(C)C2C(C1)C(C)(C)OCN2C (stereo not shown) [Compound 22, 6-isopentyl-1,4,4,8-tetramethyloctahydro-2H-benzo[d][1,3]oxazine] |  |  |  |  |

| Compound | EC50 (hTRPM8; [2]) [nM] | time of max cooling [1] [min] | Max. cooling [1] | Cooling after 1 h [1] | EC50 (hTRPM8) [nM] |
| --- | --- | --- | --- | --- | --- |
| CCC[C@@H]1CC[C@@H]2[C@@H](C1)C(C)(C)ON2C(C)C (racemic) [Compound 26, rac-(3aR,5R,7aR)-1-isopropyl-3,3-dimethyl-5-propyloctahydrobenzo[c]isoxazole] | 300 to 1000 | 10 | S (“S” for “strong” (score above 4, up to 8)) | M (“M” for “medium” (score above 1, up to 4)) |  |
| CC[C@@H]1C[C@H](CC)[C@@H]2[C@@H](C1)C(C)(C)ON2C(C)C (racemic) [Compound 111, rac-(3aR,5R,7S,7aR)-5,7-diethyl-1-isopropyl-3,3-dimethyloctahydrobenzo[c]isoxazole] | 300 to 1000 | 10 | M (“M” for “medium” (score above 1, up to 4)) | L (“L” for “low” (score above 0, up to 1)) |  |
| CC1CC(C)C2C(C1)C(C)(C)ON2C (stereo not shown) [Compound 4, 1,3,3,5,7-pentamethyloctahydrobenzo[c]isoxazole] | 1000 to 35000 | 3 | M (“M” for “medium” (score above 1, up to 4)) | L (“L” for “low” (score above 0, up to 1)) |  |
| CC1CC(C)C2C(C1)C(C)(C)ON2C(C)C (stereo not shown) [Compound 12, 1-isopropyl-3,3,5,7-tetramethyloctahydrobenzo[c]isoxazole] | 300 to 1000 | 5 | M (“M” for “medium” (score above 1, up to 4)) | L (“L” for “low” (score above 0, up to 1)) |  |
| COc1cccc(C2(C)CC(C)C3C(C2)C(C)(C)ON3C)n1 (stereo not shown) [Compound 18, 5-(6-methoxypyridin-2-yl)-1,3,3,5,7-pentamethyloctahydrobenzo[c]isoxazole] | 300 to 1000 |  |  |  |  |
| CCC1CC(CC)C2C(C1)C(C)(C)ON2C (stereo not shown) [Compound 19, 5,7-diethyl-1,3,3-trimethyloctahydrobenzo[c]isoxazole] | 1000 to 35000 |  |  |  |  |
| CCC1(C)CC(C)C2C(C1)C(C)(C)ON2C (stereo not shown) [Compound 20, 5-ethyl-1,3,3,5,7-pentamethyloctahydrobenzo[c]isoxazole] | 1000 to 35000 |  |  |  |  |
